Results on one molecule are retold here after PMC8286641 (European Journal of Drug Metabolism and Pharmacokinetics, 2021).

The test system of one data set is MATE1. As to conditions: read-out: IC50 MATE1; cited from earlier work.
In the next data set the test system is MATE2-K. Conditions: read-out: IC50 MATE2-K; cited from earlier work.
Data set [1] concerns organic anion transporter (OAT) 3 (SLC22A8). As to conditions: read-out: IC50 OAT3; cited from earlier work.
Another data set concerns the target T1, ENT1 (Homo sapiens, UniProt Q99808).
T1 sequence (Q99808 1-456): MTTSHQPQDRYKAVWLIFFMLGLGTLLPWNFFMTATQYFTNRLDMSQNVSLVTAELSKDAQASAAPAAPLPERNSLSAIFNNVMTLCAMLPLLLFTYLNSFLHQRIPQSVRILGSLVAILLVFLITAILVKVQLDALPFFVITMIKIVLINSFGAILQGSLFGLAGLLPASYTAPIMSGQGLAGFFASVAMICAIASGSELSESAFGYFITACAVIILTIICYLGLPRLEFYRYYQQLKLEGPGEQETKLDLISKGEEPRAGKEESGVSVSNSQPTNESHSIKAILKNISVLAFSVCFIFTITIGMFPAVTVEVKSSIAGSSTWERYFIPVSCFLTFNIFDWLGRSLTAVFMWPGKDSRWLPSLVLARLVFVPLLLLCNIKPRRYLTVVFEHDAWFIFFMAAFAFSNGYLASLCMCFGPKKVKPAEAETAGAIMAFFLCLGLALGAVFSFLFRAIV
Briefly: Inhibition of ENT1-mediated [3H]-uridine uptake in HAP1 ENT2-KO cells. It is filed as cell-based. As to conditions: 10 µM TKI.

The next data set concerns OCT1. Conditions: cited from earlier work.
Another data set deals with OCT2. As to conditions: read-out: IC50 OCT2; cited from earlier work.

Molecules are shown by their SMILES.

As for `N#CC[C@H](C1CCCC1)n1cc(-c2ncnc3[nH]ccc23)cn1` [Ruxolitinib, ruxolitinib], the IC50 (with MATE1; in the data set with MATE2-K; in data set [1]; with OCT2) was less than 10 µM in each case. Further, on ENT1 (HAP1-ENT2 KO cells, [3H]-uridine uptake 5 min at 37 °C), the “% inhibition of ENT1 activity (mean ± SD)” value came out at 34.1 ± 13.2 %. For the same molecule, the ENT1 inhibitor class result on ENT1 (HAP1 ENT2-KO cells) is “weak (decreased ENT1 activity by less than 35% and can thus be considered as weak ENT1 inhibitors)”. For the same molecule, in the data set with OCT1, the “Effect on OCT1 activity (in words)” value is recorded as “fails to alter that of OCT1”.

Broadly, the IC50 is the midpoint of a concentration-inhibition curve.
